Assay results reported in the CheMixHub viscosity set.
± gives the uncertainty stated by the source.

Assay: xn = mol fraction of the nth substance listed

C=COC(C)=O + CCCCCCCCO
303.15 K, 101.33 kPa
Settings | viscosity [mPa·s]
x1 = 0.1001 | 4.448 ± 0.026
x1 = 0.2008 | 3.155 ± 0.019
x1 = 0.3002 | 2.302 ± 0.014
x1 = 0.4017 | 1.705 ± 0.011
x1 = 0.4997 | 1.279 ± 0.008
x1 = 0.6008 | 0.965 ± 0.006
x1 = 0.6993 | 0.743 ± 0.005
x1 = 0.7981 | 0.577 ± 0.004
x1 = 0.8965 | 0.459 ± 0.004

CCCCCCCCCCCCCCCCCCCC + CCCCCCCCCC
viscosity [mPa·s], 101.3 kPa
Settings | x2 = 0.201 | x2 = 0.4 | x2 = 0.5 | x2 = 0.6 | x2 = 0.8
293.15 K | – | – | – | – | 1.56 ± 0.02
303.2 K | – | – | 2.4 ± 0.03 | 2.01 ± 0.02 | 1.31 ± 0.02
313.2 K | 3.14 ± 0.04 | 2.38 ± 0.03 | 1.95 ± 0.02 | 1.68 ± 0.02 | 1.12 ± 0.01

CCCCOC(C)=O + Cc1ccccc1C
viscosity [mPa·s], 101 kPa
Settings | 298.15 K | 308.15 K
x1 = 0.0481 | 0.751 ± 0.005 | 0.652 ± 0.005
x1 = 0.1501 | 0.735 ± 0.005 | 0.64 ± 0.005
x1 = 0.2484 | 0.722 ± 0.005 | 0.63 ± 0.005
x1 = 0.3482 | 0.71 ± 0.005 | 0.621 ± 0.005
x1 = 0.4474 | 0.7 ± 0.005 | 0.614 ± 0.005
x1 = 0.5002 | 0.696 ± 0.005 | 0.61 ± 0.005
x1 = 0.5477 | 0.692 ± 0.005 | 0.607 ± 0.005
x1 = 0.657 | 0.685 ± 0.005 | 0.602 ± 0.005
x1 = 0.7456 | 0.68 ± 0.005 | 0.599 ± 0.005
x1 = 0.8459 | 0.677 ± 0.005 | 0.596 ± 0.005
x1 = 0.9461 | 0.675 ± 0.005 | 0.594 ± 0.005

CCCN + CO
298.15 K, 100 kPa
Settings | viscosity [mPa·s]
x2 = 0.0987 | 0.4013 ± 0.0046
x2 = 0.1995 | 0.4374 ± 0.0049
x2 = 0.2868 | 0.4756 ± 0.0053
x2 = 0.397 | 0.5323 ± 0.0058
x2 = 0.4985 | 0.5872 ± 0.0064
x2 = 0.5475 | 0.6104 ± 0.0066
x2 = 0.6249 | 0.6414 ± 0.0069
x2 = 0.6977 | 0.658 ± 0.007
x2 = 0.8 | 0.652 ± 0.0069
x2 = 0.8982 | 0.6144 ± 0.0065
x2 = 0.9499 | 0.5827 ± 0.0061

CCCCOC(C)=O + CCCCO
viscosity [mPa·s], 101 kPa
Settings | x1 = 0.1 | x1 = 0.1944 | x1 = 0.2974 | x1 = 0.3991 | x1 = 0.4988 | x1 = 0.6008 | x1 = 0.6913 | x1 = 0.7961 | x1 = 0.8993
298.15 K | 2.212 ± 0.024 | 1.921 ± 0.02 | 1.641 ± 0.017 | 1.407 ± 0.014 | 1.212 ± 0.012 | 1.041 ± 0.01 | 0.923 ± 0.009 | 0.813 ± 0.008 | 0.727 ± 0.008
303.15 K | 1.962 ± 0.022 | 1.713 ± 0.018 | 1.475 ± 0.015 | 1.262 ± 0.013 | 1.091 ± 0.011 | 0.948 ± 0.01 | 0.839 ± 0.009 | 0.755 ± 0.008 | 0.688 ± 0.008
308.15 K | 1.75 ± 0.02 | 1.532 ± 0.017 | 1.31 ± 0.014 | 1.146 ± 0.012 | 0.993 ± 0.01 | 0.876 ± 0.009 | 0.789 ± 0.008 | 0.703 ± 0.008 | 0.646 ± 0.007
313.15 K | 1.558 ± 0.018 | 1.365 ± 0.015 | 1.184 ± 0.013 | 1.037 ± 0.011 | 0.908 ± 0.01 | 0.806 ± 0.009 | 0.731 ± 0.008 | 0.662 ± 0.008 | 0.619 ± 0.007

CCCOC(=O)c1ccccc1 + CCCCCCCCCCCC
101 kPa
Settings | viscosity [mPa·s]
298.15 K, x2 = 0.0304 | 2.294 ± 0.073
298.15 K, x2 = 0.0721 | 2.175 ± 0.069
298.15 K, x2 = 0.1434 | 2.021 ± 0.065
298.15 K, x2 = 0.1817 | 1.949 ± 0.062
298.15 K, x2 = 0.2145 | 1.892 ± 0.061
298.15 K, x2 = 0.3444 | 1.688 ± 0.054
298.15 K, x2 = 0.3881 | 1.634 ± 0.053
298.15 K, x2 = 0.4343 | 1.583 ± 0.051
298.15 K, x2 = 0.4851 | 1.537 ± 0.05
298.15 K, x2 = 0.5395 | 1.494 ± 0.048
298.15 K, x2 = 0.5883 | 1.458 ± 0.047
298.15 K, x2 = 0.6355 | 1.431 ± 0.046
298.15 K, x2 = 0.6936 | 1.402 ± 0.046
298.15 K, x2 = 0.7544 | 1.38 ± 0.045
298.15 K, x2 = 0.8162 | 1.368 ± 0.045
298.15 K, x2 = 0.8809 | 1.358 ± 0.044
298.15 K, x2 = 0.9435 | 1.354 ± 0.044
308.15 K, x2 = 0.0462 | 1.805 ± 0.058
308.15 K, x2 = 0.0938 | 1.716 ± 0.055
308.15 K, x2 = 0.1234 | 1.663 ± 0.053
308.15 K, x2 = 0.1581 | 1.608 ± 0.051
308.15 K, x2 = 0.1951 | 1.553 ± 0.05
308.15 K, x2 = 0.237 | 1.499 ± 0.048
308.15 K, x2 = 0.2799 | 1.449 ± 0.046
308.15 K, x2 = 0.3153 | 1.411 ± 0.045
308.15 K, x2 = 0.359 | 1.37 ± 0.044
308.15 K, x2 = 0.4106 | 1.326 ± 0.043
308.15 K, x2 = 0.4473 | 1.299 ± 0.042
308.15 K, x2 = 0.4959 | 1.267 ± 0.041
308.15 K, x2 = 0.5498 | 1.236 ± 0.04
308.15 K, x2 = 0.6007 | 1.21 ± 0.039
308.15 K, x2 = 0.6592 | 1.191 ± 0.039
308.15 K, x2 = 0.7183 | 1.172 ± 0.038
308.15 K, x2 = 0.7624 | 1.163 ± 0.038
308.15 K, x2 = 0.8324 | 1.153 ± 0.038
308.15 K, x2 = 0.9146 | 1.146 ± 0.038
318.15 K, x2 = 0.026 | 1.532 ± 0.049
318.15 K, x2 = 0.0634 | 1.473 ± 0.047
318.15 K, x2 = 0.0967 | 1.423 ± 0.045
318.15 K, x2 = 0.1355 | 1.371 ± 0.044
318.15 K, x2 = 0.1705 | 1.328 ± 0.043
318.15 K, x2 = 0.2119 | 1.28 ± 0.041
318.15 K, x2 = 0.2499 | 1.242 ± 0.04
318.15 K, x2 = 0.2955 | 1.201 ± 0.039
318.15 K, x2 = 0.3358 | 1.168 ± 0.038
318.15 K, x2 = 0.4031 | 1.12 ± 0.036
318.15 K, x2 = 0.4279 | 1.105 ± 0.036
318.15 K, x2 = 0.48 | 1.077 ± 0.035
318.15 K, x2 = 0.5272 | 1.055 ± 0.034
318.15 K, x2 = 0.5827 | 1.033 ± 0.034
318.15 K, x2 = 0.6342 | 1.015 ± 0.033
318.15 K, x2 = 0.6953 | 0.997 ± 0.032
318.15 K, x2 = 0.7509 | 0.985 ± 0.032
318.15 K, x2 = 0.8169 | 0.975 ± 0.032
318.15 K, x2 = 0.8761 | 0.968 ± 0.032

CCCCOC(C)=O + Cc1ccc(C)cc1
viscosity [mPa·s], 101 kPa
Settings | 298.15 K | 308.15 K
x1 = 0.0459 | 0.615 ± 0.005 | 0.537 ± 0.005
x1 = 0.1511 | 0.615 ± 0.005 | 0.54 ± 0.005
x1 = 0.2505 | 0.618 ± 0.005 | 0.543 ± 0.005
x1 = 0.3511 | 0.621 ± 0.005 | 0.547 ± 0.005
x1 = 0.4477 | 0.626 ± 0.005 | 0.552 ± 0.005
x1 = 0.4948 | 0.628 ± 0.005 | 0.555 ± 0.005
x1 = 0.55 | 0.632 ± 0.005 | 0.558 ± 0.005
x1 = 0.6515 | 0.639 ± 0.005 | 0.565 ± 0.005
x1 = 0.7509 | 0.647 ± 0.005 | 0.572 ± 0.005
x1 = 0.8517 | 0.657 ± 0.005 | 0.58 ± 0.005
x1 = 0.9445 | 0.667 ± 0.005 | 0.589 ± 0.005

CCCCCCCCCCCCCCCCCCCC + CCCCCCC
viscosity [mPa·s], 101.3 kPa
Settings | x1 = 0.2 | x1 = 0.4 | x1 = 0.499 | x1 = 0.597 | x1 = 0.796
293.2 K | 0.9382 ± 0.011 | – | – | – | –
303.2 K | 0.8194 ± 0.0093 | 1.567 ± 0.018 | 2.02 ± 0.023 | – | –
313.2 K | 0.7187 ± 0.0081 | 1.327 ± 0.015 | 1.705 ± 0.019 | 2.145 ± 0.024 | 2.989 ± 0.034

Oc1ccccc1Cl + CCCCOCCO
viscosity [mPa·s], 101 kPa
Settings | x1 = 0.1256 | x1 = 0.2442 | x1 = 0.3565 | x1 = 0.4628 | x1 = 0.5638 | x1 = 0.6597 | x1 = 0.751 | x1 = 0.8379 | x1 = 0.9208
303.15 K | 3.306 ± 0.074 | 4.125 ± 0.091 | 4.745 ± 0.1 | 5.08 ± 0.11 | 5.13 ± 0.11 | 4.92 ± 0.11 | 4.5 ± 0.098 | 3.975 ± 0.088 | 3.396 ± 0.076
308.15 K | 2.934 ± 0.066 | 3.49 ± 0.077 | 3.876 ± 0.086 | 4.084 ± 0.09 | 4.093 ± 0.09 | 3.935 ± 0.087 | 3.654 ± 0.081 | 3.302 ± 0.074 | 2.895 ± 0.065
313.15 K | 2.604 ± 0.059 | 2.992 ± 0.067 | 3.267 ± 0.073 | 3.404 ± 0.076 | 3.405 ± 0.076 | 3.298 ± 0.073 | 3.106 ± 0.069 | 2.847 ± 0.064 | 2.563 ± 0.058
318.15 K | 2.282 ± 0.052 | 2.554 ± 0.058 | 2.738 ± 0.062 | 2.82 ± 0.063 | 2.833 ± 0.064 | 2.754 ± 0.062 | 2.624 ± 0.059 | 2.45 ± 0.056 | 2.254 ± 0.051
